Data: ChEMBL document CHEMBL3244280, “Thiazolinone analogues of indolmycin with antiviral and antibacterial activity” (J Med Chem, 1978)
Activity calls are given as the source filed them. No cut-off for these calls is given here.

Assays:
Staphylococcus aureus [1] = assay: Antibacterial activity against Staphylococcus aureus Russel up to 200 ug/ml; assay type: functional, organism-based
Streptococcus pyogenes = assay: Antibacterial activity against Streptococcus pyogenes CN10 up to 200 ug/ml; assay type: functional, organism-based
[2] = Cytotoxicity against BHK cells up to 100 ug/ml by carbol fuschin assay; assay type: cell-based, Mesocricetus auratus; details: hamster
HeLa = assay: Cytotoxicity against human HeLa cells up to 100 ug/ml; assay type: cell-based
Human alphaherpesvirus 1 = assay: Antiviral activity against Herpes simplex virus 1 infected in chick embryo fibroblasts by plaque reduction assay; assay type: functional, organism-based
Staphylococcus aureus [3] = assay: Antibacterial activity against Staphylococcus aureus 1517 up to 200 ug/ml; assay type: functional, organism-based
Influenza A virus = assay: Antiviral activity against influenza A virus NWS/H0N1 infected in BHK cells up to 100 ug/ml by agar diffusion assay; assay type: functional, organism-based
Enterococcus faecalis = assay: Antibacterial activity against Streptococcus faecalis I up to 200 ug/ml; assay type: functional, organism-based
Coxsackievirus B1 = assay: Antiviral activity against Coxsackievirus B1 infected in human HeLa cells up to 100 ug/ml by agar diffusion assay; assay type: functional, organism-based
Staphylococcus aureus [4] = assay: Antibacterial activity against Staphylococcus aureus Oxford up to 200 ug/ml; assay type: functional, organism-based
Bacillus subtilis = assay: Antibacterial activity against Bacillus subtilis up to 200 ug/ml; assay type: functional, organism-based

SMILES | Activity (Staphylococcus aureus [1]) | Activity (Streptococcus pyogenes) | Activity [2] | Activity (HeLa) | Activity (Human alphaherpesvirus 1) | Activity (Staphylococcus aureus [3]) | Activity (Influenza A virus) | Activity (Enterococcus faecalis) | Activity (Coxsackievirus B1) | Activity (Staphylococcus aureus [4]) | Activity (Bacillus subtilis)
CN(C)C1=NC(=O)C(Cc2c[nH]c3ccccc23)S1 (racemic) | inactive | inactive | Non-toxic | Non-toxic | inactive | inactive | inactive | inactive | inactive | inactive | inactive
CN1C(=N)SC(Cc2c[nH]c3ccccc23)C1=O (racemic) | inactive | inactive | Non-toxic | Non-toxic | inactive | inactive | inactive | inactive | inactive | inactive | inactive
CNC1=NC(=O)[C@H]([C@H](C)c2c[nH]c3ccccc23)S1 (racemic) | – | – | – | – | inactive | – | – | – | – | – | –
O=C1N/C(=N\c2ccccc2)SC1Cc1c[nH]c2ccccc12 (racemic) | inactive | inactive | Non-toxic | Non-toxic | inactive | inactive | inactive | inactive | inactive | inactive | inactive
O=C1N=C(NCCO)SC1Cc1c[nH]c2ccccc12 (racemic) | inactive | inactive | Non-toxic | Non-toxic | inactive | inactive | inactive | inactive | inactive | inactive | inactive
C[C@H](c1c[nH]c2ccccc12)[C@@H]1SC(NCCN(C)C)=NC1=O.Cl (racemic) | inactive | inactive | Non-toxic | Non-toxic | inactive | inactive | inactive | inactive | inactive | inactive | inactive
CNC1=NC(=O)[C@H]([C@H](C)c2c[nH]c3ccccc23)S1 | – | – | – | – | inactive | – | – | – | – | – | –
O=C1N=C(NCc2ccccc2)SC1Cc1c[nH]c2ccccc12 (racemic) | inactive | inactive | Non-toxic | Non-toxic | inactive | inactive | inactive | inactive | inactive | inactive | inactive
CCN1C(=N)SC(Cc2c[nH]c3ccccc23)C1=O (racemic) | inactive | inactive | Non-toxic | Non-toxic | inactive | inactive | inactive | inactive | inactive | inactive | inactive
O=C1NC(=S)SC1Cc1c[nH]c2ccccc12 (racemic) | inactive | inactive | Non-toxic | Non-toxic | inactive | inactive | inactive | inactive | inactive | inactive | inactive
